Values quoted from earlier work in patent publication US20220125811A1, “INJECTABLE COMPOSITION FOR INDUCING LIPOLYSIS AND METHOD USING THE SAME” (priority 2020, published 2022).

Settings: half saline; 5 mEq sodium bicarbonate (8.4%); 6 cc multivitamin formulation; 10 cc amino acid formulation

O=C([O-])O.[Na+] [sodium bicarbonate (8.4%), sodium bicarbonate]
osmolarity of the ingredient amount used in the calculation: 10 mOsm
